Test results reported in PubChem BioAssay (NCI).
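Abbreviation: GI50, concentration required for 50% inhibition of growth. TGI: total growth inhibition.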

Assays:
Assay in all cases: NCI tumour cell line growth inhibition, 384-well format
786-0 renal = system: 786-0 renal
UACC-62 melanoma = system: UACC-62 melanoma
OVCAR-8 ovarian = system: OVCAR-8 ovarian
CAKI-1 renal = system: CAKI-1 renal
K-562 leukemia = system: K-562 leukemia
OVCAR-5 ovarian = system: OVCAR-5 ovarian
NCI-H23 lung = system: NCI-H23 lung
HCT-116 colon = system: HCT-116 colon
SN12C renal = system: SN12C renal
U251 glioblastoma = system: U251 glioblastoma
A498 renal = system: A498 renal
NCI/ADR-RES ovarian = system: NCI/ADR-RES ovarian
SK-OV-3 ovarian = system: SK-OV-3 ovarian
MCF7 breast = system: MCF7 breast
RPMI-8226 leukemia = system: RPMI-8226 leukemia
OVCAR-3 ovarian = system: OVCAR-3 ovarian
NCI-H522 lung = system: NCI-H522 lung
HOP-62 NSCLC = system: HOP-62 NSCLC
HCT-15 colon = system: HCT-15 colon
SNB-19 CNS = system: SNB-19 CNS
SNB-75 CNS = system: SNB-75 CNS
SW-620 colon = system: SW-620 colon
SF-268 CNS = system: SF-268 CNS
NCI-H226 lung = system: NCI-H226 lung
ACHN renal = system: ACHN renal
DU-145 prostate = system: DU-145 prostate
RXF 393 renal = system: RXF 393 renal
SF-539 CNS = system: SF-539 CNS
MDA-MB-468 breast = system: MDA-MB-468 breast
CCRF-CEM leukemia = system: CCRF-CEM leukemia
KM12 colon = system: KM12 colon
HL-60(TB) leukemia = system: HL-60(TB) leukemia
SF-295 CNS = system: SF-295 CNS
T-47D breast = system: T-47D breast
M14 melanoma = system: M14 melanoma
A549 NSCLC = system: A549 NSCLC
BT-549 breast = system: BT-549 breast
UO-31 renal = system: UO-31 renal
HT29 colon = system: HT29 colon
MOLT-4 leukemia = system: MOLT-4 leukemia
LOX IMVI melanoma = system: LOX IMVI melanoma
IGROV1 ovarian = system: IGROV1 ovarian
MDA-MB-231 breast = system: MDA-MB-231 breast
MDA-MB-435 melanoma = system: MDA-MB-435 melanoma
HS 578T breast = system: HS 578T breast
NCI-H460 NSCLC = system: NCI-H460 NSCLC
HOP-92 NSCLC = system: HOP-92 NSCLC
MALME-3M melanoma = system: MALME-3M melanoma
NCI-H322M lung = system: NCI-H322M lung
SK-MEL-5 melanoma = system: SK-MEL-5 melanoma
EKVX NSCLC = system: EKVX NSCLC
COLO 205 colon = system: COLO 205 colon
PC-3 prostate = system: PC-3 prostate
OVCAR-4 ovarian = system: OVCAR-4 ovarian
HCC-2998 colon = system: HCC-2998 colon

Q: For `S=P(N1CC1)(N1CC1)N1CC1`, which GI50 ([…]-0 renal) is on record?
A: 32.7 µM

Q: What about the GI50 (UACC-62 melanoma) of the same compound?
A: 11 µM

Q: What about the GI50 (OVCAR-8 ovarian) of the same compound?
A: 28 µM

Q: And the GI50 (CAKI-1 renal)?
A: 17.8 µM

Q: What about the GI50 (K-562 leukemia) of the same compound?
A: 74 µM

Q: What about the GI50 (OVCAR-5 ovarian) of the same compound?
A: 70.4 µM

Q: And the GI50 (NCI-H23 lung)?
A: 17.3 µM

Q: And the TGI (NCI-H23 lung)?
A: 99.5 µM

Q: What about the GI50 (HCT-116 colon) of the same compound?
A: 34.1 µM

Q: What about the GI50 (SN12C renal) of the same compound?
A: 9.52 µM

Q: What about the GI50 (U251 glioblastoma) of the same compound?
A: 20.7 µM

Q: And the GI50 (A498 renal)?
A: 39.4 µM

Q: What about the GI50 (NCI/ADR-RES ovarian) of the same compound?
A: 30.1 µM

Q: What about the GI50 (SK-OV-3 ovarian) of the same compound?
A: 29.8 µM

Q: What about the GI50 (MCF7 breast) of the same compound?
A: 21.2 µM

Q: What about the GI50 (RPMI-8226 leukemia) of the same compound?
A: 12 µM

Q: What about the TGI (RPMI-8226 leukemia) of the same compound?
A: 36.4 µM

Q: And the GI50 (OVCAR-3 ovarian)?
A: 43.3 µM

Q: And the GI50 (NCI-H522 lung)?
A: 45.9 µM

Q: And the GI50 (HOP-62 NSCLC)?
A: 8.65 µM

Q: What about the TGI (HOP-62 NSCLC) of the same compound?
A: 31.8 µM

Q: What about the GI50 (HCT-15 colon) of the same compound?
A: 33.7 µM

Q: And the GI50 (SNB-19 CNS)?
A: 41.6 µM

Q: What about the GI50 (SNB-75 CNS) of the same compound?
A: 22 µM

Q: What about the GI50 (SW-620 colon) of the same compound?
A: 61.6 µM

Q: What about the GI50 (SF-268 CNS) of the same compound?
A: 9.43 µM

Q: What about the GI50 (NCI-H226 lung) of the same compound?
A: 61.3 µM

Q: And the GI50 (ACHN renal)?
A: 19.9 µM

Q: And the TGI (ACHN renal)?
A: 63.4 µM

Q: And the GI50 (DU-145 prostate)?
A: 7.82 µM

Q: What about the TGI (DU-145 prostate) of the same compound?
A: 98.9 µM

Q: And the GI50 (RXF 393 renal)?
A: 53.9 µM

Q: What about the GI50 (SF-539 CNS) of the same compound?
A: 20.2 µM

Q: And the TGI (SF-539 CNS)?
A: 92.8 µM

Q: And the GI50 (MDA-MB-468 breast)?
A: 3.58 µM

Q: What about the TGI (MDA-MB-468 breast) of the same compound?
A: 18.7 µM

Q: What about the GI50 (CCRF-CEM leukemia) of the same compound?
A: 4.2 µM

Q: And the TGI (CCRF-CEM leukemia)?
A: 11 µM

Q: And the GI50 (KM12 colon)?
A: 93.6 µM

Q: And the GI50 (HL-60(TB) leukemia)?
A: 1.27 µM

Q: And the TGI (HL-60(TB) leukemia)?
A: 2.85 µM

Q: What about the GI50 (SF-295 CNS) of the same compound?
A: 11.3 µM

Q: And the TGI (SF-295 CNS)?
A: 31.3 µM

Q: And the GI50 (T-47D breast)?
A: 93.6 µM

Q: And the GI50 (M14 melanoma)?
A: 24.8 µM

Q: And the GI50 (A549 NSCLC)?
A: 38.4 µM

Q: What about the GI50 (BT-549 breast) of the same compound?
A: 29 µM

Q: And the GI50 (UO-31 renal)?
A: 74.4 µM

Q: And the GI50 (HT29 colon)?
A: 59.4 µM

Q: And the GI50 (MOLT-4 leukemia)?
A: 0.4 µM

Q: What about the TGI (MOLT-4 leukemia) of the same compound?
A: 1.49 µM

Q: What about the GI50 (LOX IMVI melanoma) of the same compound?
A: 24.9 µM

Q: What does the source list for `Cc1cn(-c2cc(NC(=O)c3ccc(C)c(Nc4nccc(-c5cccnc5)n4)c3)cc(C(F)(F)F)c2)cn1`?
A: GI50 (786-0 renal): 1.64 µM; TGI (786-0 renal): 3.03 µM; GI50 (OVCAR-8 ovarian): 1.59 µM; TGI (OVCAR-8 ovarian): 3.32 µM; GI50 (CAKI-1 renal): 3.04 µM; TGI (CAKI-1 renal): 10.8 µM; GI50 (OVCAR-5 ovarian): 1.91 µM; TGI (OVCAR-5 ovarian): 5.09 µM; GI50 (IGROV1 ovarian): 1.87 µM; TGI (IGROV1 ovarian): 3.61 µM; GI50 (NCI-H23 lung): 2.24 µM; TGI (NCI-H23 lung): 7.48 µM; GI50 (MDA-MB-231 breast): 1.3 µM; TGI (MDA-MB-231 breast): 3.65 µM; GI50 (MDA-MB-435 melanoma): 1.72 µM; TGI (MDA-MB-435 melanoma): 3.49 µM; GI50 (HCT-116 colon): 1.65 µM; TGI (HCT-116 colon): 3.75 µM; GI50 (HS 578T breast): 1.55 µM; TGI (HS 578T breast): 2.9 µM; GI50 (SN12C renal): 3.61 µM; TGI (SN12C renal): > 100 µM; GI50 (A498 renal): 1.98 µM; TGI (A498 renal): 3.94 µM; GI50 (NCI/ADR-RES ovarian): 1.58 µM; TGI (NCI/ADR-RES ovarian): 3.74 µM; GI50 (SK-OV-3 ovarian): 1.83 µM; TGI (SK-OV-3 ovarian): 3.3 µM; GI50 (MCF7 breast): 1.88 µM; TGI (MCF7 breast): 3.67 µM; GI50 (NCI-H460 NSCLC): 2.67 µM; TGI (NCI-H460 NSCLC): 9.42 µM; GI50 (RPMI-8226 leukemia): 1.46 µM; TGI (RPMI-8226 leukemia): 5.45 µM; GI50 (HOP-92 NSCLC): 1.66 µM; TGI (HOP-92 NSCLC): 3.6 µM; GI50 (OVCAR-3 ovarian): 1.73 µM; TGI (OVCAR-3 ovarian): 3.36 µM; GI50 (NCI-H522 lung): 1.82 µM; TGI (NCI-H522 lung): 4.48 µM; GI50 (HOP-62 NSCLC): 2.21 µM; TGI (HOP-62 NSCLC): 5.73 µM; GI50 (HCT-15 colon): 3.6 µM; TGI (HCT-15 colon): 14.2 µM; GI50 (MALME-3M melanoma): 0.447 µM; TGI (MALME-3M melanoma): 1.62 µM; GI50 (NCI-H226 lung): 1.7 µM; TGI (NCI-H226 lung): 3.68 µM; GI50 (ACHN renal): 1.64 µM; TGI (ACHN renal): 3.47 µM; GI50 (DU-145 prostate): 2.8 µM; TGI (DU-145 prostate): 7.6 µM; GI50 (RXF 393 renal): 1.47 µM; TGI (RXF 393 renal): 2.84 µM; GI50 (NCI-H322M lung): 2.29 µM; TGI (NCI-H322M lung): 4.63 µM; GI50 (MDA-MB-468 breast): 1.77 µM; TGI (MDA-MB-468 breast): 3.31 µM; GI50 (SK-MEL-5 melanoma): 1.28 µM; TGI (SK-MEL-5 melanoma): 2.6 µM; GI50 (KM12 colon): 2.5 µM; TGI (KM12 colon): 6.87 µM; GI50 (HL-60(TB) leukemia): 1.46 µM; TGI (HL-60(TB) leukemia): 7.92 µM; GI50 (SF-295 CNS): 1.74 µM; TGI (SF-295 CNS): 3.39 µM; GI50 (EKVX NSCLC): 1.88 µM; TGI (EKVX NSCLC): 3.78 µM; GI50 (M14 melanoma): 1.19 µM; TGI (M14 melanoma): 2.53 µM; GI50 (A549 NSCLC): 1.72 µM; TGI (A549 NSCLC): 3.16 µM; GI50 (COLO 205 colon): 1.28 µM; TGI (COLO 205 colon): 2.98 µM; GI50 (PC-3 prostate): 1.71 µM; TGI (PC-3 prostate): 3.13 µM; GI50 (OVCAR-4 ovarian): 3.16 µM; TGI (OVCAR-4 ovarian): 7.25 µM; GI50 (BT-549 breast): 1.99 µM; TGI (BT-549 breast): 3.43 µM; GI50 (HCC-2998 colon): 2.24 µM; TGI (HCC-2998 colon): 5.36 µM; GI50 (HT29 colon): 1.66 µM; TGI (HT29 colon): 3.78 µM; GI50 (MOLT-4 leukemia): 1.89 µM; TGI (MOLT-4 leukemia): > 100 µM; GI50 (LOX IMVI melanoma): 2.2 µM; TGI (LOX IMVI melanoma): 9.93 µM
